Test results taken from PMC7312527 (International Journal of Molecular Sciences, 2020).
“And” between values parts separate entries of the source, which are not always exact repeats. Equal values may be shown once.

Tests used:
[1] = biological target: AChE from electric eel (Electrophorus electricus, UniProt O42275); assay: biochemical; conditions: for Selectivity for AChE: IC50 (BuChE)/IC50(AChE); for IC50: means ± SD of three independent experiments, read-out: EeAChE IC50 ± SD
[2] = biological target: BuChE from equine serum (Equus caballus, UniProt P81908); assay: biochemical; conditions: for Selectivity for BuChE: IC50(AChE)/IC50(BuChE); for IC50: means ± SD of three independent experiments, read-out: EqBuChE IC50 ± SD
[3] = system: Human hepatic stellate cells (HSCs); assay: in vitro; assay type: cell-based; conditions: HSCs, 24 h
Procedure: (§1) Human hepatic stellate cells (HSCs, Sciencell) were cultured in the Stellate Cell Medium (Sciencell) with 1% Stellate Cell Growth Supplement, 2% fetal bovine serum (FBS), and 1% penicillin/streptomycin solution (Sciencell). Cells were kept in the incubator (37 °C, 5% CO2). At the beginning of the experiment, cells were seeded in the 96-well plates at a density of 5 × 10^3 cells per well and incubated in the incubator for 24 h. After the incubation period, medium was removed and HSCs were exposed to 100 µL of the compound solutions over a range of concentrations (10–0.1 µM) or nothing but culture medium (blank control). Cells were further incubated for 24 h. At the end, medium was removed, cells were washed with PBS, and 50 µL of the MTT solution (0.75 mg/mL) was added to the cells. Plates were kept in the dark for 2 h at 37 °C. Finally, the MTT solution was removed and 100 µL of DMSO was added to each well. Plates with DMSO were kept at room temperature for 10 min. After this time, 5 µL of Sorensen Buffer was added to each well. Plates were swayed and the absorbance was measured at a wavelength of 570 nm by a microplate reader (Synergy H1, BioTek). The cell viability was expressed as a percentage of the control values (blank control).

[4] = in vitro; assay type: cell-based; conditions: human
Procedure: as §1

[5] = Experimental Properties; cited from earlier work
[6] = Experimental Properties; cited from earlier work; remark: listed apart in the source
[7] = biological target: T1, hyaluronidase (Bos taurus, UniProt Q2YDK3); assay: Hyaluronidase (HYAL) inhibition test (turbidimetry); assay type: biochemical
T1 sequence (Q2YDK3 36-553): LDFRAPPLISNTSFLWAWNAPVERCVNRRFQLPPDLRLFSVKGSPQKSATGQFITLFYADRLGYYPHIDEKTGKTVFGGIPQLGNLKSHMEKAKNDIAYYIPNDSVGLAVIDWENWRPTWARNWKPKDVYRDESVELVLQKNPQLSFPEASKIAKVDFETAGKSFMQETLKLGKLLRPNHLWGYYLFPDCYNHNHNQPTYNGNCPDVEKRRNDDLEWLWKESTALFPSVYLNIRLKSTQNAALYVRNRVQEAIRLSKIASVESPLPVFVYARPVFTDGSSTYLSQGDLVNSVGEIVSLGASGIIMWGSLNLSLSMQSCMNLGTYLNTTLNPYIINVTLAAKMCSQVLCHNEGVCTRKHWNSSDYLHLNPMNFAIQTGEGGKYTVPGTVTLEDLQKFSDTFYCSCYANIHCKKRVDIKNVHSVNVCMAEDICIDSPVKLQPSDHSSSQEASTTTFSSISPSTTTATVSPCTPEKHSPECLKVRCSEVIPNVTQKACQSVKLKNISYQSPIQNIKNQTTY
Procedure: The hyaluronidase inhibition assay was set by turbidimetry according to USP XXII-NF XVII, modified by Piwowarski, to the 96-wells plates test. Tested compound solutions were freshly prepared before the assay. The protocol started with the addition of 20 µL of the tested compound in monosodium phosphate buffer and 40 µL of hyaluronidase solution (22.5 U/mL, Sigma Aldrich) to each well. The plate was kept in the dark (10 min, 37 °C). In the next step, 40 µL of hyaluronic acid solution (0.03%, Sigma Aldrich) in monosodium phosphate buffer was added to the wells and the plate was incubated again (45 min, 37 °C). Finally, 300 µL of bovine serum albumin (0.1%, Serva) in sodium acetate buffer was added to the wells and the mixture was kept at room temperature for 10 min. The assay was carried out in triplicate. Changes in turbidity were measured by a microplate reader (BioTek, Winooski, VT, USA) at 600 nm. Heparin (WZF, Polfa, Warszawa, Poland) was the positive control. The inhibitory activity of the tested compound was calculated from the Equation (1):(1) % inhibition=100x1−AHA−AAN/AHA−AHYAL where AHA is the absorbance of solution without the enzyme (positive control), AHYAL is the absorbance of solution without the tested compound (negative control), and AAN is the absorbance of solution with the tested compound.

[8] = system: SH-SY5Y cells; assay: Neuroprotection against oxidative stress induced by H2O2 (MTT); assay type: cell-based, human; conditions: H2O2 100 µM
[9] = system: SH-SY5Y cells; assay: Neuroprotection against rotenone/oligomycin A, pre-incubation (MTT); assay type: cell-based, human; conditions: R/O mixture, 0.001 µM
[10] = system: SH-SY5Y cells; assay: Neuroprotection against rotenone/oligomycin A, co-incubation (MTT); assay type: cell-based, human; conditions: R/O mixture

AChE from electric eel, sequence (O42275 24-633): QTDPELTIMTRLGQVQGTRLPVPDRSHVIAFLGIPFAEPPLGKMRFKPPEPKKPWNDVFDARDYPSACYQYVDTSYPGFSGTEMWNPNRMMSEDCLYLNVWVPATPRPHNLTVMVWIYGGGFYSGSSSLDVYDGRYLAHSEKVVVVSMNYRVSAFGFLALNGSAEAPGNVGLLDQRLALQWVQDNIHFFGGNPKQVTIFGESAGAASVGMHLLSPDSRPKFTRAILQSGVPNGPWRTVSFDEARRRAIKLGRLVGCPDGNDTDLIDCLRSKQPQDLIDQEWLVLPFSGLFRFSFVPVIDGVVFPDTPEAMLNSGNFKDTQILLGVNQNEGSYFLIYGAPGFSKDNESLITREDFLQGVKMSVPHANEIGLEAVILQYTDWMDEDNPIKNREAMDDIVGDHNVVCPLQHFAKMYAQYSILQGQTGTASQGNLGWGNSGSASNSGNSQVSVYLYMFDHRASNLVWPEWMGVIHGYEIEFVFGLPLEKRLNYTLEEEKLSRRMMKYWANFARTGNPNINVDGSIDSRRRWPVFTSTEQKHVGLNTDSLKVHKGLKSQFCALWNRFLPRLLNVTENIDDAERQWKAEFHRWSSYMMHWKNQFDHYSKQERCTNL
BuChE from equine serum, sequence (P81908 whole entry): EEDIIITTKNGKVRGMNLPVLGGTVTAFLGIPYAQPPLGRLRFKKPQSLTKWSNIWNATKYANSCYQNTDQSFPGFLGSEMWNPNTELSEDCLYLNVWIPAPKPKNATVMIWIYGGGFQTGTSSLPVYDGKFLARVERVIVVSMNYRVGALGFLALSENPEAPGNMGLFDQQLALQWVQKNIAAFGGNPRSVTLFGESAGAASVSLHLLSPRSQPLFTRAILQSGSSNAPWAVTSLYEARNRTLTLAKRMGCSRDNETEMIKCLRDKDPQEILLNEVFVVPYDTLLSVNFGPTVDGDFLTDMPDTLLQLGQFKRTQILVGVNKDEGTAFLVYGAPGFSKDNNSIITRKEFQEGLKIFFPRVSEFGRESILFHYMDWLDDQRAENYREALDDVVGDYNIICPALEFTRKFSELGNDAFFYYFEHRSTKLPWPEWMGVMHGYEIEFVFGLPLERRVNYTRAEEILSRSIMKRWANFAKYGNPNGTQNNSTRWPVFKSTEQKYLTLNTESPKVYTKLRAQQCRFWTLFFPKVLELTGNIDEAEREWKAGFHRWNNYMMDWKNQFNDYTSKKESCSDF

Molecule | Selectivity for AChE [1] | IC50 [1] | Selectivity for BuChE [2] | IC50 [2] [nM] | other results
O=C(NCCCCCCCCCNc1c2c(nc3ccccc13)CCCC2)c1cc(Cl)cc(Cl)c1 [Compound 3h] | 2.914 | 111 ± 4 nM | 0.343 | 324 ± 47 | –
Nc1c2c(nc3ccccc13)CCCC2 [Tacrine, reference compound] | – | – | – | – | hepatotoxicity (MTT; cell viability as percentage of control) ([3]; 0.1 µM): 100.67% ± 1.03%; hepatotoxicity (MTT; cell viability as percentage of control) ([3]; 1 µM): 99.48% ± 0.74%; viability at 24 h, 10 µM [4]: 90.3%
O=C(NCCCCCCCCNc1c2c(nc3ccccc13)CCCC2)c1cc(Cl)cc(Cl)c1 [Compound 3g] | 0.634 | 958 ± 36 nM | 1.577 | 607 ± 20 | –
CSc1ccc2c(c1)N(CCC1CCCCN1C)c1ccccc1S2.Cl (centres unmarked) [Thiorydazine HCl] | – | – | – | – | logP [5]: 5.9; pKa [6]: 9.5 [54]
Cl.O=C(NCCNc1c2c(nc3ccccc13)CCCC2)c1cc(Cl)cc(Cl)c1 [Compound 3a] | 0.203 | 690 ± 108 nM | 4.935 | 140 ± 12 | –
Heparin [positive control] | – | – | – | – | IC50 [7]: 56400 ± 780 nM
CC(CN1c2ccccc2Sc2ccccc21)N(C)C.Cl (centres unmarked) [Prometazine HCl] | – | – | – | – | pKa [6]: 9.1 [52]
O=C(NCCCCCCNc1c2c(nc3ccccc13)CCCC2)c1cc(Cl)cc(Cl)c1 [Compound 3e] | – | > 20000 nM | – | > 20000 | –
Cc1c(C)c2c(c(C)c1O)CCC(C)(C(=O)O)O2 (centres unmarked) [Trolox, reference compound] | – | – | – | – | neuroprotection ([8]; compound 0.01 µM): 77.16%; neuroprotection ([8]; compound 0.1 µM): 91.22%; neuroprotection ([8]; compound 1 µM): 96.03%; neuroprotection ([8]; compound 10 µM): 95.05%; neuroprotection [9]: 2.15%; neuroprotection ([10]; 0.001 µM): 5.60%; neuroprotection ([10]; 0.01 µM): 4.67%
O=C(NCCCCCCCNc1c2c(nc3ccccc13)CCCC2)c1cc(Cl)cc(Cl)c1 [Compound 3f] | 0.289 | 115 ± 12 nM | 3.457 | 33 ± 6 | –
O=C(NCCCNc1c2c(nc3ccccc13)CCCC2)c1cc(Cl)cc(Cl)c1 [Compound 3b] | 0.174 | 139 ± 5 nM | 5.756 | 24 ± 1 | –
O=C(NCCCCCNc1c2c(nc3ccccc13)CCCC2)c1cc(Cl)cc(Cl)c1 [Compound 3d] | – | > 12000 nM and 12400 nM | – | > 20000 | –
